{"source": "paper PMC7663272", "about": "“Discovery of Tricyclic Pyranochromenone as Novel Bruton’s Tyrosine Kinase Inhibitors with In Vivo Antirheumatic Activity” (International Journal of Molecular Sciences, 2020)", "key": {"[1]": {"biological_target": "T1, EGFR (Homo sapiens, UniProt P00533)", "T1 construct": "purchased Reaction Biology Corporation", "T1 sequence (P00533 25-1210)": "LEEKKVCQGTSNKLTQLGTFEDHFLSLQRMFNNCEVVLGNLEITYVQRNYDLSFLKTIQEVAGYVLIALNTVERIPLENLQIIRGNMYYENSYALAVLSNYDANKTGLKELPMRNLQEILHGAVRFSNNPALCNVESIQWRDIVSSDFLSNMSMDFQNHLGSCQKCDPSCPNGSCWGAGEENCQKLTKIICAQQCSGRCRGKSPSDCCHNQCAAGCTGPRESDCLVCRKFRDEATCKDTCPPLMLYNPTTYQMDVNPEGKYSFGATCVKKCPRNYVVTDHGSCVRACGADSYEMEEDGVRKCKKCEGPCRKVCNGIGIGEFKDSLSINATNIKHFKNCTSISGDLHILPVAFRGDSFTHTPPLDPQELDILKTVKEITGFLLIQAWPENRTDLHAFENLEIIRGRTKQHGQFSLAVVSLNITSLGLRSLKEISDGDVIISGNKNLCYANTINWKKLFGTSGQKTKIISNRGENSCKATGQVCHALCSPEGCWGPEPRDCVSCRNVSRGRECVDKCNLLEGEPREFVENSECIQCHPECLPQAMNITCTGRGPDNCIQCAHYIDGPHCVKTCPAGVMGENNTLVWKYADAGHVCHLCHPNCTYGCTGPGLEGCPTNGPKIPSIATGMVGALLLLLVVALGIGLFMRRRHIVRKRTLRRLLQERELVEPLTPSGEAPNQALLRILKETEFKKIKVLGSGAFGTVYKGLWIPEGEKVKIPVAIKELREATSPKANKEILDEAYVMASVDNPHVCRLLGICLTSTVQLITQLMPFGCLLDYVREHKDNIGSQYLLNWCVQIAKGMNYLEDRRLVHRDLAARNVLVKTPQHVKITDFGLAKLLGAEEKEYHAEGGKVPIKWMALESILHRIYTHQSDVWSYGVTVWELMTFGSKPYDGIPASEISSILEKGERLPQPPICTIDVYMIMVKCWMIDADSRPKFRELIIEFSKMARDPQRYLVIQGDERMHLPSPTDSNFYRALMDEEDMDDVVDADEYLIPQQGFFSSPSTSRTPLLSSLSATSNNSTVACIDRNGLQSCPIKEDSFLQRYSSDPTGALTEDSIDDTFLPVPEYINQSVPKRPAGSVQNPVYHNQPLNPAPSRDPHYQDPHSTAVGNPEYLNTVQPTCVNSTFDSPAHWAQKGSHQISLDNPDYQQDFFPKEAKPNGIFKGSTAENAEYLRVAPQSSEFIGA", "experiment": "HotSpot kinase enzymatic assay, EGFR", "type": "biochemical", "description": "(§1) Therefore, efforts have focused on developing new compounds with good selectivity profiles. […] Compound 8 was selective against BTK. The biochemical activities of compound 8 differed among TEC family kinases. […] The inhibitory potential of compound 8 differed between members of the EGFR family. […] The inhibitory activity of compound 8 against JAK3 was also low.\n(§2) Kinase enzymatic assays for BTK, BMX, TXK, TEC, ITK, EGFR, ERBB2, ERBB4, and JAK3 were performed at Reaction Biology Corporation (www.reactionbiology.com, Malvern, PA, USA) using the HotSpot assay platform. Briefly, specific kinase/substrate pairs and the required cofactors were prepared in a reaction buffer comprising 20 mM HEPES (pH 7.5), 10 mM MgCl2, 1 mM EGTA, 0.02% Brij35, 0.02 mg/mL BSA, 0.1 mM Na3VO4, 2 mM DTT, and 1% DMSO. The compounds were added to the reaction mixture and allowed to incubate. Approximately 20 min later, a mixture of ATP (Sigma-Aldrich, St. Louis, MO, USA) and ^33P ATP (PerkinElmer, Waltham, MA, USA) was added to the reaction mixture at a final concentration of 10 μM. The reactions were performed at room temperature for 120 min; subsequently, the reactions were spotted onto P81 ion exchange filter papers (Whatman Inc., Maidstone, UK). Any unbound phosphate was removed by thoroughly washing the filter papers with 0.75% phosphoric acid. […]"}, "[2]": {"biological_target": "T2, BTK-wt (Homo sapiens, UniProt Q06187)", "T2 construct": "purchased Reaction Biology Corporation", "T2 sequence (Q06187 whole entry)": "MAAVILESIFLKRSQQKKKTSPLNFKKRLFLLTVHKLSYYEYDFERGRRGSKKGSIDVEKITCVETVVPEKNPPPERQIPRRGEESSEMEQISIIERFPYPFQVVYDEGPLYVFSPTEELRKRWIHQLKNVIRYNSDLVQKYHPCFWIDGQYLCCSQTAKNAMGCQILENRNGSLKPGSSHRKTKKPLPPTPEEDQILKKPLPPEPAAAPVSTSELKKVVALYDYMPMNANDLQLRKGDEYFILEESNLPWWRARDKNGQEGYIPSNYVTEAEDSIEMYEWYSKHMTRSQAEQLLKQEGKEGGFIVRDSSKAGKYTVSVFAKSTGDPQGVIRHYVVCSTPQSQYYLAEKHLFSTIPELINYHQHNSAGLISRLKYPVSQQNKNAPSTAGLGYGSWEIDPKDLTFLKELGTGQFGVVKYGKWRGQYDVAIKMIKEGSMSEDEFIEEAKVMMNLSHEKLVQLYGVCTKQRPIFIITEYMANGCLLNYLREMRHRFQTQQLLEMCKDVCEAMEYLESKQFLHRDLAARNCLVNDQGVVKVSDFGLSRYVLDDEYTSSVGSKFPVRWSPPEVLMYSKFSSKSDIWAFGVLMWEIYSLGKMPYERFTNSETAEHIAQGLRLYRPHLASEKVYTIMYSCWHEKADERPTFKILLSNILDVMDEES", "experiment": "HotSpot kinase enzymatic assay, BTK-wt", "type": "biochemical", "description": "Kinase enzymatic assays for BTK, BMX, TXK, TEC, ITK, EGFR, ERBB2, ERBB4, and JAK3 were performed at Reaction Biology Corporation (www.reactionbiology.com, Malvern, PA, USA) using the HotSpot assay platform. Briefly, specific kinase/substrate pairs and the required cofactors were prepared in a reaction buffer comprising 20 mM HEPES (pH 7.5), 10 mM MgCl2, 1 mM EGTA, 0.02% Brij35, 0.02 mg/mL BSA, 0.1 mM Na3VO4, 2 mM DTT, and 1% DMSO. The compounds were added to the reaction mixture and allowed to incubate. Approximately 20 min later, a mixture of ATP (Sigma-Aldrich, St. Louis, MO, USA) and ^33P ATP (PerkinElmer, Waltham, MA, USA) was added to the reaction mixture at a final concentration of 10 μM. The reactions were performed at room temperature for 120 min; subsequently, the reactions were spotted onto P81 ion exchange filter papers (Whatman Inc., Maidstone, UK). […] GraphPad Prism software was used to obtain the IC50 values and perform curve fitting."}, "[3]": {"biological_target": "T3, ERBB2 (Homo sapiens, UniProt P04626)", "T3 construct": "purchased Reaction Biology Corporation", "T3 sequence (P04626 23-1255)": "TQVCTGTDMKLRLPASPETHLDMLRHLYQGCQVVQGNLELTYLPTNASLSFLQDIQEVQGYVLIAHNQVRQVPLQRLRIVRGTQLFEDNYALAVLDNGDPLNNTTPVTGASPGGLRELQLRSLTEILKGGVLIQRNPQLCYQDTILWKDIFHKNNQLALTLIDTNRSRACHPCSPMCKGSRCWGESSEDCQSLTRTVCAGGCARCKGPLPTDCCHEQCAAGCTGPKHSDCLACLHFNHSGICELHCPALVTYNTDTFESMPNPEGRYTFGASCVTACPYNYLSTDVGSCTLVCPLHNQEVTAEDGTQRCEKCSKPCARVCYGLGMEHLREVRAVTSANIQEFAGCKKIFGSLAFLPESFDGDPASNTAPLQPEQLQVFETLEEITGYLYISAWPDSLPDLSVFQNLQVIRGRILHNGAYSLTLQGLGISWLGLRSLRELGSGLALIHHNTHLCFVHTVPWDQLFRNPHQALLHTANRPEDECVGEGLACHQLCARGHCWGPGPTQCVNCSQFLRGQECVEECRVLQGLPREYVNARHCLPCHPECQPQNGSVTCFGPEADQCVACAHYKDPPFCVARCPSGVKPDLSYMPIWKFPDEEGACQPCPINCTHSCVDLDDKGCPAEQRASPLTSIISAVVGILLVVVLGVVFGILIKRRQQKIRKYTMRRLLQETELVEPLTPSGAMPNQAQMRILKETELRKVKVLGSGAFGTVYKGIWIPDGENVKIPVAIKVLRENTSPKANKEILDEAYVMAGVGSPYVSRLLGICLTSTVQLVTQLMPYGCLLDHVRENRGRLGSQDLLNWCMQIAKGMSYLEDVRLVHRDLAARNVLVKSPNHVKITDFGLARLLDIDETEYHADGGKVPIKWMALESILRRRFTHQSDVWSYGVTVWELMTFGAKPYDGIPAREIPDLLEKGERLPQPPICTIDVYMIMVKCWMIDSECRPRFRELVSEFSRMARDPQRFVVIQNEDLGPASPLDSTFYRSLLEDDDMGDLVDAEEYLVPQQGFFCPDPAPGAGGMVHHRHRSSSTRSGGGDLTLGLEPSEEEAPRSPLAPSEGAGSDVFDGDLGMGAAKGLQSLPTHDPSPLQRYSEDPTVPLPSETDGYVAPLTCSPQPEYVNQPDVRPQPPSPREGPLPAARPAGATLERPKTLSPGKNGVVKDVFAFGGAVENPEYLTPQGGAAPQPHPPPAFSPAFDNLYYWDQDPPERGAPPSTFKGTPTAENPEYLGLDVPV", "experiment": "HotSpot kinase enzymatic assay, ERBB2", "type": "biochemical", "details": "mean of two experiments", "description": "as §1, §2"}, "[4]": {"biological_target": "T4, CYP2C9 (Homo sapiens, UniProt P11712)", "T4 construct": "purchased Promega V9790", "T4 sequence (P11712 whole entry)": "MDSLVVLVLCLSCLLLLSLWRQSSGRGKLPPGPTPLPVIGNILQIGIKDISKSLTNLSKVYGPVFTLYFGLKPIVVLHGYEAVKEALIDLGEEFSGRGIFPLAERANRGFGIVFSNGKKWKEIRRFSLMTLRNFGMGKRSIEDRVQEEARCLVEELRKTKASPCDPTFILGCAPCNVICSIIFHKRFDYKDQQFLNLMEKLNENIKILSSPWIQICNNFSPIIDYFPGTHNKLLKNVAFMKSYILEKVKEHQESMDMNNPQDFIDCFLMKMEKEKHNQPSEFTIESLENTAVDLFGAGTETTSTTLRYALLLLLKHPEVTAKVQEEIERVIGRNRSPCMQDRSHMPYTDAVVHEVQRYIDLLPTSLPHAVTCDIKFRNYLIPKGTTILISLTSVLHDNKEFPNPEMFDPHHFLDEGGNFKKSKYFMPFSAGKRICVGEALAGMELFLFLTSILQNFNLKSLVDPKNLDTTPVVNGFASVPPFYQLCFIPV", "experiment": "P450-Glo CYP inhibition assay, CYP2C9", "type": "in vitro ADME", "description": "The potential for CYP450 inhibition (CYP1A2, 2C9, 2C19, 2D6, and […]) was assessed using Promega P450-Glo^TM CYP450 assay systems. Luciferin-ME served as the substrate for CYP1A2, and the inhibitor α-naphthoflavone was used as a positive control. Luciferin-H was used as the substrate for CYP2C9, and the inhibitor sulfaphenazole was used as a positive control. Luciferin-H EGE was selected as the substrate for CYP2C19, whereas the inhibitor amitriptyline served as a positive control. Luciferin-ME EGE was used as the substrate for CYP2D6, whereas the inhibitor quinidine served as a positive control. Luciferin-BE was used as the substrate for CYP3A4, whereas the inhibitor ketoconazole was used as a positive control. The assays were performed using the excitation and emission wavelengths recommended by the manufacturer. Briefly, a CYP enzyme and a P450-Glo™ substrate were combined in potassium phosphate (0.1 M KPO4) buffer, with or without a test compound of interest, and […]. The reaction was initiated by adding two volumes of 2 times concentrated NADPH regeneration system. […] Luminescence was subsequently measured using a Tecan Infinite M1000 PRO microplate reader (Tecan Group Ltd., Switzerland). The percent inhibition was calculated relative to that of the positive control at a fixed concentration. […]"}}, "note": "pIC50: −log10 of the molar value. Like-named read-outs stand apart in the source and are kept apart here."}
{"compound": "C=CC(=O)O[C@H]1Cc2cc3ccc(=O)oc3cc2OC1(C)C", "note": "[Compound 8, (7S)-(+)-Acrylic acid, 8,8-dimethyl-2-oxo-6,7-dihydro-2H,8H-pyrano [3,2-g]chromen-7-yl ester]", "values": [{"measurement": "inhibitory activity against EGFR (in words)", "setting": "[1]", "value": "weak inhibitory activity"}, {"measurement": "inhibition at 10 µM", "setting": "[1]; 10 µM, mean of two experiments", "value": 32.9, "unit": "%"}, {"measurement": "inhibition at 10 µM", "setting": "[2]; vs negative control (DMSO), mean of two separate experiments, NA = not active at 10 µM, read-out: % Inhibition (10 µM) BTK-wt", "value": 98.2, "unit": "%"}, {"measurement": "pIC50", "setting": "[2]; HotSpot assay, 10 μM ATP, GraphPad Prism", "value": 6.10}, {"measurement": "inhibition at 10 µM", "setting": "[2]; Table 2 selectivity profile, mean of two experiments, read-out: % Inhibition at 10 µM, BTK", "value": 98.2, "unit": "%"}, {"measurement": "kinase selectivity (in words)", "setting": "[2]; over EGFR and TEC family kinases, JAK3", "value": "selective for BTK over ITK, EGFR, ERBB4, and JAK3"}, {"measurement": "inhibition at 10 µM", "setting": "[3]", "value": 59.2, "unit": "%"}, {"measurement": "CYP2C9 inhibition (in words)", "setting": "[4]", "value": "moderately inhibited"}, {"measurement": "CYP inhibition 2C9", "setting": "[4]; % inhibition of human CYP isozymes at 10 μM", "value": 66.1, "unit": "%"}]}
